Source: patent US20240336654A1, “ANTIMICROBIAL PEPTIDOMIMETICS” (SPEXIS AG, priority 2021, published 2024)
Where a SMILES comes first, the peptide text is derived from it. Bridges are numbered along the chain shown (N, C = ends). [ ]: non-standard residue; d: D form. The star is where a group is joined. Val(Nα-amidino) = CC(C)[C@H](NC(=N)N)C(=O)*; dDab(iPr) = CC(C)NCC[C@@H](N)C(=O)O; Dab(iPr) = CC(C)NCC[C@H](N)C(=O)O; Hyp = O=C(O)[C@@H]1C[C@@H](O)CN1; Pen = CC(C)(S)[C@H](N)C(=O)O; dDab = NCC[C@@H](N)C(=O)O; Nle = CCCC[C@H](N)C(=O)O; Dab = NCC[C@H](N)C(=O)O

Tests used:
Format in all cases: cell-based
[1] = system: human red blood cells (hRBC); conditions: red cells of human, 1 h, 200 μg/mL
Method in brief: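 Percent hemolysis derived from OD540 of supernatants relative to full lysis by 2.5% Triton X-100 (PBS baseline). Washed fresh human erythrocytes (20% v/v) were exposed to 200 μg/mL peptide for 1 h at 37 °C with shaking.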

[2] = system: Escherichia coli ATCC 25922; conditions: ATCC 25922
Method in brief: (§1)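 CLSI broth microdilution, slightly modified: cation-adjusted Mueller-Hinton II broth with about 5×10^5 CFU/mL from a 0.5 McFarland suspension, and two-fold serial peptide dilutions with Polysorbate 80 at 0.002% final. MIC (μg/mL) was the lowest concentration with no visible growth after 18-20 hours at 35° C.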

[3] = system: Klebsiella pneumoniae SSI3010; conditions: SSI3010
Method in brief: as §1

[4] = system: Escherichia coli MCR-1 Af 45; conditions: MCR-1 Af 45
Method in brief: as §1

| SMILES | Hemolysis at 0.2 g/L [1] [%] | Escherichia coli ATCC 25922 MIC [2] [µg/mL] | Klebsiella pneumoniae SSI3010 MIC [3] [µg/mL] | Escherichia coli MCR-1 Af45 MIC [4] [µg/mL] |
| --- | --- | --- | --- | --- |
| CC[C@H](C)[C@H](NC(=O)[C@@H]1C[C@@H](O)CN1C(=O)[C@@H](N)C(C)C)C(=O)N[C@@H]1C(=O)N[C@@H](Cc2ccc(O)cc2)C(=O)N[C@@H](CO)C(=O)N[C@@H](CC(N)=O)C(=O)N[C@@H](CCCNC(=N)N)C(=O)N[C@@H](CCN)C(=O)N[C@@H]([C@@H](C)O)C(=O)N[C@H](CCN)C(=O)N[C@@H](CCCCN)C(=O)N[C@@H](CCN)C(=O)N[C@@H](CCN)C(=O)N[C@H](C(=O)N[C@@H](Cc2c[nH]c3ccccc23)C(=O)O)CSSC1(C)C [Example 66, Val-Hyp-Ile-Pen-Tyr-Ser-Asn-Arg-Dab-Thr-^DDab-Lys-Dab-Dab-Cys-Trp] (H-V[Hyp]I[Pen]YSNR[Dab]T[dDab]K[Dab][Dab]CW-OH; disulfide 4-15) | <1 | 0.0625 | 0.125 | 0.0625 |
| CCCC[C@H](NC(=O)[C@@H]1CSSC(C)(C)[C@H](NC(=O)[C@@H](NC(=O)[C@@H]2C[C@@H](O)CN2C(=O)[C@@H](N)C(C)C)[C@@H](C)CC)C(=O)N[C@@H](Cc2ccc(O)cc2)C(=O)N[C@@H](CO)C(=O)N[C@@H](CC(N)=O)C(=O)N[C@@H](CCCNC(=N)N)C(=O)N[C@@H](CCN)C(=O)N[C@@H]([C@@H](C)O)C(=O)N[C@H](CCN)C(=O)N[C@@H](CCCCN)C(=O)N[C@@H](CCN)C(=O)N[C@@H](CCN)C(=O)N1)C(=O)O [Example 67, Val-Hyp-Ile-Pen-Tyr-Ser-Asn-Arg-Dab-Thr-^DDab-Lys-Dab-Dab-Cys-Nle] (H-V[Hyp]I[Pen]YSNR[Dab]T[dDab]K[Dab][Dab]C[Nle]-OH; disulfide 4-15) | <1 | 0.0625 | 0.125 | 0.0625 |
| CC[C@H](C)[C@H](NC(=O)[C@@H]1C[C@@H](O)CN1C(=O)[C@@H](NC(=N)N)C(C)C)C(=O)N[C@@H]1C(=O)N[C@@H](Cc2ccc(O)cc2)C(=O)N[C@@H]([C@@H](C)O)C(=O)N[C@@H](CC(N)=O)C(=O)N[C@@H](CCCNC(=N)N)C(=O)N[C@@H](CCN)C(=O)N[C@@H]([C@@H](C)O)C(=O)N[C@H](CCN)C(=O)N[C@@H](CCCCN)C(=O)N[C@@H](CCN)C(=O)N[C@@H](CCN)C(=O)N[C@H](C(=O)N[C@@H](Cc2ccc(O)cc2)C(=O)O)CSSC1(C)C [Example 68, Gua-Val-Hyp-Ile-Pen-Tyr-Thr-Asn-Arg-Dab-Thr-^DDab-Lys-Dab-Dab-Cys-Tyr] ({Val(Nα-amidino)}-[Hyp]I[Pen]YTNR[Dab]T[dDab]K[Dab][Dab]CY-OH; disulfide 3-14) | <1 | 0.0625 | 0.125 | 0.03125 |
| CC[C@H](C)[C@H](NC(=O)[C@@H]1C[C@@H](O)CN1C(=O)[C@@H](NC(=N)N)C(C)C)C(=O)N[C@@H]1C(=O)N[C@@H](Cc2ccc(O)cc2)C(=O)N[C@@H](CCN)C(=O)N[C@@H](CC(N)=O)C(=O)N[C@@H](CCCNC(=N)N)C(=O)N[C@@H](CCN)C(=O)N[C@@H]([C@@H](C)O)C(=O)N[C@H](CCN)C(=O)N[C@@H](CCCCN)C(=O)N[C@@H](CO)C(=O)N[C@@H](CCN)C(=O)N[C@H](C(=O)N[C@@H](Cc2ccc(O)cc2)C(=O)O)CSSC1(C)C [Example 69, Gua-Val-Hyp-Ile-Pen-Tyr-Dab-Asn-Arg-Dab-Thr-^DDab-Lys-Ser-Dab-Cys-Tyr] ({Val(Nα-amidino)}-[Hyp]I[Pen]Y[Dab]NR[Dab]T[dDab]KS[Dab]CY-OH; disulfide 3-14) | <1 | 0.0625 | 0.0625 | 0.0625 |
| CC[C@H](C)[C@H](NC(=O)[C@@H]1C[C@@H](O)CN1C(=O)[C@@H](NC(=N)N)C(C)C)C(=O)N[C@@H]1C(=O)N[C@@H](Cc2ccc(O)cc2)C(=O)N[C@@H](CO)C(=O)N[C@@H](CC(N)=O)C(=O)N[C@@H](CCCNC(=N)N)C(=O)N[C@@H](CCNC(C)C)C(=O)N[C@@H]([C@@H](C)O)C(=O)N[C@H](CCN)C(=O)N[C@@H](CCCCN)C(=O)N[C@@H](CCNC(C)C)C(=O)N[C@@H](CCN)C(=O)N[C@H](C(=O)N[C@@H](Cc2ccc(O)cc2)C(=O)O)CSSC1(C)C [Example 70, Gua-Val-Hyp-Ile-Pen-Tyr-Ser-Asn-Arg-Da b(iPr)-Thr-^DDab-Lys-Dab(iPr)-Dab-Cys-Tyr] ({Val(Nα-amidino)}-[Hyp]I[Pen]YSNR[Dab(iPr)]T[dDab]K[Dab(iPr)][Dab]CY-OH; disulfide 3-14) | <1 | 0.125 | 0.25 | 0.0625 |
| CC[C@H](C)[C@H](NC(=O)[C@@H]1C[C@@H](O)CN1C(=O)[C@@H](NC(=N)N)C(C)C)C(=O)N[C@@H]1C(=O)N[C@@H](Cc2ccc(O)cc2)C(=O)N[C@@H](CO)C(=O)N[C@@H](CC(N)=O)C(=O)N[C@@H](CCCNC(=N)N)C(=O)N[C@@H](CCN)C(=O)N[C@@H]([C@@H](C)O)C(=O)N[C@H](CCNC(C)C)C(=O)N[C@@H](CCCCN)C(=O)N[C@@H](CCN)C(=O)N[C@@H](CCN)C(=O)N[C@H](C(=O)N[C@@H](Cc2ccc(O)cc2)C(=O)O)CSSC1(C)C [Example 71, Gua-Val-Hyp-Ile-Pen-Tyr-Ser-Asn-Arg-Dab-Thr-^DDab(iPr)-Lys-Dab-Dab-Cys-Tyr] ({Val(Nα-amidino)}-[Hyp]I[Pen]YSNR[Dab]T[dDab(iPr)]K[Dab][Dab]CY-OH; disulfide 3-14) | <1 | 0.0625 | 0.125 | 0.0625 |
| CC[C@H](C)[C@H](NC(=O)[C@@H]1C[C@@H](O)CN1C(=O)[C@@H](NC(=N)N)C(C)C)C(=O)N[C@@H]1C(=O)N[C@@H](Cc2ccc(O)cc2)C(=O)N[C@@H](CCN)C(=O)N[C@@H](CC(N)=O)C(=O)N[C@@H](CCCNC(=N)N)C(=O)N[C@@H](CCN)C(=O)N[C@@H]([C@@H](C)O)C(=O)N[C@H](CCN)C(=O)N[C@@H](CCCCN)C(=O)N[C@@H]([C@@H](C)O)C(=O)N[C@@H](Cc2ccc(O)cc2)C(=O)N[C@H](C(=O)N[C@@H](Cc2ccc(O)cc2)C(=O)O)CSSC1(C)C [Example 72, Gua-Val-Hyp-Ile-Pen-Tyr-Dab-Asn-Arg-Dab-Thr-^DDab-Lys-Thr-Tyr-Cys-Tyr] ({Val(Nα-amidino)}-[Hyp]I[Pen]Y[Dab]NR[Dab]T[dDab]KTYCY-OH; disulfide 3-14) | <1 | 0.5 | 0.5 | 0.5 |
| CC[C@H](C)[C@@H]1NC(=O)[C@H]([C@@H](C)O)NC(=O)[C@H](CCCCN)NC(=O)[C@@H](CCN)NC(=O)[C@H]([C@@H](C)O)NC(=O)[C@H](CCN)NC(=O)[C@H](CCCNC(=N)N)NC(=O)[C@H](CC(N)=O)NC(=O)[C@H](CCN)NC(=O)[C@H](Cc2ccc(O)cc2)NC(=O)[C@@H](NC(=O)[C@@H](NC(=O)[C@@H]2C[C@@H](O)CN2C(=O)[C@@H](NC(=N)N)C(C)C)[C@@H](C)CC)C(C)(C)SSC[C@@H](C(=O)N[C@@H](Cc2ccc(O)cc2)C(=O)O)NC1=O [Example 73, Gua-Val-Hyp-Ile-Pen-Tyr-Dab-Asn-Arg-Dab-Thr-^DDab-Lys-Thr-Ile-Cys-Tyr] ({Val(Nα-amidino)}-[Hyp]I[Pen]Y[Dab]NR[Dab]T[dDab]KTICY-OH; disulfide 3-14) | <1 | 0.5 | 0.5 | 0.5 |
